T1: Solute carrier family 22 member 1 (Rattus norvegicus, UniProt Q63089)
T1 sequence (Q63089 whole entry): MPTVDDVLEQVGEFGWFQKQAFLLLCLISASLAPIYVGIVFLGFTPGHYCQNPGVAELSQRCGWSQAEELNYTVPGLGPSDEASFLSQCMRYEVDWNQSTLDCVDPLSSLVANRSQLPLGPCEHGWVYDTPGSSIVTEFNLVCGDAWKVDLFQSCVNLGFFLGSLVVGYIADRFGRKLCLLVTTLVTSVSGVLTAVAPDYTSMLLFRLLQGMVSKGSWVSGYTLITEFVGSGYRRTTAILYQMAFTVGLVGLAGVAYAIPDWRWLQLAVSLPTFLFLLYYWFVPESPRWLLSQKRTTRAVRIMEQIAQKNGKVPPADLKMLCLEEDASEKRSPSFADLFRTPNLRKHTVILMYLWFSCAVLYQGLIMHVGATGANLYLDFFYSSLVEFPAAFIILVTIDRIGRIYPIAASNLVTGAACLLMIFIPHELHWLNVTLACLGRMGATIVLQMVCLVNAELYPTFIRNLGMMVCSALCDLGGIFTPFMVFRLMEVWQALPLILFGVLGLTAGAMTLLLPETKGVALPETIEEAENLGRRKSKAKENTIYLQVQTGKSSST

T2: Solute carrier family 22 member 2 (Rattus norvegicus, UniProt Q9R0W2)
T2 sequence (Q9R0W2 whole entry): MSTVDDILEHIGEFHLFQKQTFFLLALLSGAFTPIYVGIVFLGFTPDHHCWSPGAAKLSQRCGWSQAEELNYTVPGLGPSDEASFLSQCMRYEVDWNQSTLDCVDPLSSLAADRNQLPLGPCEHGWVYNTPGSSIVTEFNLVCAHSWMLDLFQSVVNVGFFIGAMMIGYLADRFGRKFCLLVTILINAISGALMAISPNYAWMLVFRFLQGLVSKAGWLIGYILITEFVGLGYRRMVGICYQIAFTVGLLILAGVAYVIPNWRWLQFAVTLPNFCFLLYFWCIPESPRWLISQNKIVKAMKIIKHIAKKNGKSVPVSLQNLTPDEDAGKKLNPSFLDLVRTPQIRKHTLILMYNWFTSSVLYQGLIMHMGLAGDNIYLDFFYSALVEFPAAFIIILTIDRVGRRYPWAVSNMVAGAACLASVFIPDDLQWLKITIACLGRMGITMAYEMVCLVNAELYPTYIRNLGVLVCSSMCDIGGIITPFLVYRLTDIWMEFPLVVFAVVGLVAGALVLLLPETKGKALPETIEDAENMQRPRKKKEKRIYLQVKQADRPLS


Assays:
[1] = target: T1, Solute carrier family 22 member 1; assay: TP_TRANSPORTER: inhibition of TEA uptake in Xenopus laevis oocytes; format: functional, cell-based, Oocyte
[2] = target: T1, Solute carrier family 22 member 1; assay: (§1) TP_TRANSPORTER: uptake in Xenopus laevis oocytes; format: functional, cell-based; details: oocyte
[3] = target: T2, Solute carrier family 22 member 2; assay: as §1; format: functional, cell-based; details: oocyte
[4] = target: T1, Solute carrier family 22 member 1; assay: TP_TRANSPORTER: inhibition of dTub uptake in Xenopus laevis oocytes
[5] = substrate: CC[N+](CC)(CC)CC; assay: cells, lysate or membranes named

Molecule	Activity [2]	Activity [3]	also measured
Nc1ncnc2c1ccn2[C@H]1C[C@H](O)[C@@H](CO)O1 [2'-Deoxytubercidin]	–	–	Ki [1]: 19 µM
Nc1nc(Cl)nc2c1ncn2[C@H]1C[C@H](O)[C@@H](CO)O1 [CLADRIBINE]	substrate [+]	is not a substrate [-]	–
Nc1ccn([C@@H]2O[C@H](CO)[C@@H](O)[C@@H]2O)c(=O)n1 [CYTARABINE]	substrate [+]	is not a substrate [-]	–
CC[N+](CC)(CC)CC [TETRYLAMMONIUM]	–	–	Ki [4]: 286 µM
Cc1cn([C@H]2C[C@H](N=[N+]=[N-])[C@@H](CO)O2)c(=O)[nH]c1=O [ZIDOVUDINE]	substrate [+]	is not a substrate [-]	–
Solute carrier family 22 member 1 (Rattus norvegicus) (protein) MPTVDDVLEQVGEFGWFQKQAFLLLCLISASLAPIYVGIVFLGFTPGHYCQNPGVAELSQRCGWSQAEELNYTVPGLGPSDEASFLSQCMRYEVDWNQSTLDCVDPLSSLVANRSQLPLGPCEHGWVYDTPGSSIVTEFNLVCGDAWKVDLFQSCVNLGFFLGSLVVGYIADRFGRKLCLLVTTLVTSVSGVLTAVAPDYTSMLLFRLLQGMVSKGSWVSGYTLITEFVGSGYRRTTAILYQMAFTVGLVGLAGVAYAIPDWRWLQLAVSLPTFLFLLYYWFVPESPRWLLSQKRTTRAVRIMEQIAQKNGKVPPADLKMLCLEEDASEKRSPSFADLFRTPNLRKHTVILMYLWFSCAVLYQGLIMHVGATGANLYLDFFYSSLVEFPAAFIILVTIDRIGRIYPIAASNLVTGAACLLMIFIPHELHWLNVTLACLGRMGATIVLQMVCLVNAELYPTFIRNLGMMVCSALCDLGGIFTPFMVFRLMEVWQALPLILFGVLGLTAGAMTLLLPETKGVALPETIEEAENLGRRKSKAKENTIYLQVQTGKSSST	–	–	Km [5]: 251 µM

— ChEMBL document CHEMBL2074159, “Role of organic cation transporters in the renal secretion of nucleosides” (Biochem Pharmacol, 2000)
